Results from US8278033B2, “Efficient well being assessment and improved treatment protocol” (priority 2008, dated 2012).
“And” between values parts separate entries of the source, which are not always exact repeats. Equal entries are not always repeated.

Key:
tumor cells [1] = test: Direct antitumor (AT) score on slides of tumor cell cultures; assay type: cell-based, human; details: direct antitumor effects; concentrations as in Table 1
Protocol: (§1) Solid tumors are minced to pieces smaller than 1 mm (small enough to be aspirated into a standard disposable 10 ml pipette) with high quality curved surgical scissors. Medium in which said tumors may have been transported is reserved, along with the supernatant from the tissue mince. Scissor-minced tumor pieces are digested with collagenase/DNase in RPMI-1640 containing antibiotics and 10% fetal calf serum. Specimens are digested in 50 ml disposable polypropylene centrifuge tubes, assisted by gentle mixing with plastic-coated, magnetic stirring bars over a stirring plate. Specimens are thusly mixed until complete gross digestion has taken place—typically about 2-3 hours for a 1-3 gram specimen. Cytospin slides are then prepared from all cell fractions (transport medium, supernatant from tissue mince, and enzyme digestate), and stained with fast green-H&E, as described previously (Weisenthal, et al., “A Novel Dye Exclusion Method for Testing in vitro Chemosensitivity of Human Tumors,” Cancer Res. (1983) 43:749-757).
To assay for endothelial cells are mixed with, for example, 10% (volume/volume) or, for example, 1% (volume/volume) or intermediate percentages of antiangiogenic drug containing solution or vehicle control (most typically 0.9% NaCl). Final volume of cell suspension/drug solution (or vehicle) plated for culture can be 0.12 ml. Culturing is in polypropylene round bottom, 96-well culture dishes in a humidified 37° C. incubator for a standardized duration of time.
Cells are cultured with the index concentration of each drug and, if desired, with dilutions of the index concentration, where the index concentration is determined from training set assays or from the literature. Negative controls generally consist of 0.9% NaCl, and/or the vehicle in which an antiangiogenic drug is dissolved. Replicate 96-well plates are tested.
(§2) For this determination, the results provided in Table 1 are 10× multiples of the scoring system of the previous paragraph.
(§3) The scores provided in FIG. 2 were multiplied by 10 and averaged to give an anti-vascular score (AVS) shown in column 2; the average AVS for the vehicle alone (VAVS) is shown in column 3 and the level of the statistical significance of their difference is shown in column 4. The AVS score was corrected for the effect of vehicle by subtraction as shown in column 5. The antitumor score (AT) is shown in column 6.

endothelial cells [2] = test: Anti-vascular score (AVS) on Fast Green/H&E slides of tumor cell cultures, averaged over paired comparisons; assay type: cell-based, human; parameters: key to Anti-Vascular Score (AVS) (Avg): 10x the 0+ to 5+ anti-microvascular score (max 50); key to AVS minus VAVS (Avg): AVS minus vehicle AVS, on 10x the 0+ to 5+ scale; details: for Anti-Vascular Score (AVS) (Avg): 10x multiples of the 0+ to 5+ score, average of N paired comparisons, bevacizumab 2.5 mg/ml, DMSO 0.5% + EtOH 0.5%, cisplatin 3.3, sunitinib 8.35, gefitinib 22.35, erlotinib 89.4, sorafenib 12.5, imatinib 12.5 μg/ml; for AVS minus VAVS (Avg): AVS corrected for the effect of vehicle by subtraction; for AVS minus VAVS (Avg) / (AVS − VAVS)/AT Ratio (Avg): concentrations as in Table 1; for (AVS − VAVS)/AT Ratio (Avg): ratio of vehicle-corrected AVS to antitumor score
Protocol: as §1
Final volume of cell suspension/drug solution (or vehicle) plated for culture can be 0.12 ml. Culturing is in polypropylene round bottom, 96-well culture dishes in a humidified 37° C. incubator for a standardized duration of time.
Cells are cultured with the index concentration of each drug and, if desired, with dilutions of the index concentration, where the index concentration is determined from training set assays or from the literature. […] Replicate 96-well plates are tested.
The various drugs were rated by scoring on a 0+ to 5+ scale for the anti-microvascular effects, with 5+ being the highest possible score. […] The “nib” drugs are kinase inhibiting drugs.
as §2, §3
Finally, the ratio of AVS (corrected for the effect of vehicle) to the antitumor score is shown in the last column.

endothelial cells [3] = test: Anti-microvascular effects in non-Hodgkin's Lymphoma lymph node biopsy culture (ImageJ and manual scores); assay type: cell-based, human; details: for concentration at which anti-angiogenic cell effects were achievable / anti-microvascular activity (in words): NHL lymph node biopsy sample; for concentration at which anti-angiogenic cell effects were achievable: FIG. 7; for anti-microvascular activity (in words): FIG. 6
Description: (§4) A lymph node biopsy was obtained from a non-Hodgkin's Lymphoma patient and processed and stained as described above. […] The cells can also be imaged using publicly available “ImageJ” software available from the National Institutes of Health (NIH) to assist quantitation. The image is converted to 8-bit black and white threshold gated to paint only the dead endothelial cells.
The raw scores for the gated features (putative dead endothelial cells) are normalized for uneven cell distributions by image analyzing each area twice: first with the detection threshold set to gate only the features of interest (putative dead endothelial cells) and then again to detect all features on the slide (this would be analogous to normalizing gene copy to total DNA in cell extracts).

[4] = tested on: non-Hodgkin's Lymphoma (NHL) cells; test: Direct antitumor cell effects in non-Hodgkin's Lymphoma lymph node biopsy culture; assay type: cell-based, human; details: NHL lymph node biopsy sample, FIG. 6
Description: as §4
(§5) The objective, automated ImageJ scores for both individual gated features and also for total area (originally in pixels squared) is shown. The raw scores for the gated features (putative dead endothelial cells) are normalized for uneven cell distributions by image analyzing each area twice: first with the detection threshold set to gate only the features of interest (putative dead endothelial cells) and then again to detect all features on the slide (this would be analogous to normalizing gene copy to total DNA in cell extracts). Shown additionally are the subjective (0+ to 5+) manual anti-vascular scores which were obtained one month before the installed the ImageJ software was installed. Shown additionally are the direct antitumor cell effects of each of the drugs and solvents tested.

endothelial cells [5] = test: Endothelial cell killing by drugs and combinations in a poorly differentiated breast cancer specimen; assay type: cell-based, human; details: for effectiveness in endothelial cell killing (in words): Fast Green/H&E
Description: A specimen of poorly differentiated breast cancer was used in the procedures set forth in the previous examples and tested with various drugs and drug combinations as described above.

endothelial cells [6] = test: Anti-microvascular effect scoring, Fast Green/H&E stained pancreatic carcinoid tumor suspension culture; assay type: cell-based, human
Protocol: as §1
Final volume of cell suspension/drug solution (or vehicle) plated for culture can be 0.12 ml. […]
Cells are cultured with the index concentration of each drug and, if desired, with dilutions of the index concentration, where the index concentration is determined from training set assays or from the literature. […]

[7] = tested on: vascular endothelial growth factor (VEGF); test: Level of VEGF in tumor cell cultures (optical density 450 nm minus 570 nm); assay type: cell-based, human
Protocol: The observed ability of EtOH/DMSO to effect killing of microvascular/endothelial cells may be due to the ability of these solvents to reduce the levels of VEGF in cell culture. It is known that tumor cells secrete VEGF and VEGF is needed, for the growth of neovasculature. Accordingly, a number of tumor cell cultures were treated with these solvents. The level of VEGF in the cultures was measured by subtracting the optical density at 570 nm from the optical density of 450 nm.
For tumor samples preserved in 10% DMSO, only very low levels of VEGF were observed. […] Of particular interest are the cells from Patient 6, shown at the end of the table.

endothelial cells [8] = details: microaggregates of tumor biopsies, WO 2007/075440; cited from earlier work
tumor cells [9] = details: microaggregates of tumor biopsies, WO 2007/075440; cited from earlier work
endothelial cells [10] = test: Endothelial cell death in cultured peripheral blood chronic lymphocytic leukemia cells; assay type: cell-based, human; details: peripheral blood CLL cells cultured 4 days, 2.5 mg/ml
Description: They are readily apparent as refractile, angular small cells of smaller dimension than the surrounding cells. These cells are about one-third the size of lymphocytes and are about 3μ in diameter.

endothelial cells [11] = test: ImageJ quantitation of dead endothelial cells in cultured lymph samples; assay type: cell-based, human; details: all of the lymphoma patients
Description: as §4, §5
Lymph samples from five lymphoma patients and two normal volunteers were cultured and stained as described above. […] The quantitation of results was as described in Example 4 using ImageJ software.

Row | Molecule | Anti-Tumor (AT) Score (Avg) (tumor cells [1]) | Anti-Vascular Score (AVS) (Avg) (endothelial cells [2]) | AVS minus VAVS (Avg) (endothelial cells [2]) | (AVS − VAVS)/AT Ratio (Avg) (endothelial cells [2]) | direct antitumor activity (in words) [4] | anti-microvascular activity (in words) (endothelial cells [3]) | also measured
1 | N.N.[Cl][Pt][Cl] [Cisplatin] | 59.2 | 4.5 | 0.6 | 0.01 | – | – | –
2 | CCO [ethanol] | – | – | – | – | – | – | concentration at which anti-angiogenic cell effects were achievable (endothelial cells [3]): 0.125 % of the final medium
3 | CNC(=O)c1cc(Oc2ccc(NC(=O)Nc3ccc(Cl)c(C(F)(F)F)c3)cc2)ccn1 [Sorafenib, sorafenib] | 28.7 | – | 1.4 | – | acted directly on tumor cells | comparable to those of vehicle alone | –
4 | C#Cc1cccc(Nc2ncnc3cc(OCCOC)c(OCCOC)cc23)c1 [Erlotinib, erlotinib] | 22.5 | 16.2 | 4.2 | 0.19 | to a lesser extent, erlotinib acted directly on tumor cells | comparable to those of vehicle alone | effectiveness in endothelial cell killing (in words) (endothelial cells [5]): None appeared particularly effective
5 | CCN(CC)CCNC(=O)c1c(C)[nH]c(/C=C2\C(=O)Nc3ccc(F)cc32)c1C [Sunitinib, sunitinib] | 25.8 | 9.5 | 4.9 | 0.19 | – | – | –
6 | C[S+](C)[O-] [DMSO] | – | – | – | – | – | – | concentration at which anti-angiogenic cell effects were achievable (endothelial cells [3]): 0.125 % of the final medium
7 | Cc1ccc(NC(=O)c2ccc(CN3CCN(C)CC3)cc2)cc1Nc1nccc(-c2cccnc2)n1 [Imatinib, imatinib] | 23.6 | – | 2.8 | – | acted directly on tumor cells | comparable to those of vehicle alone | effectiveness in endothelial cell killing (in words) (endothelial cells [5]): None appeared particularly effective
8 | COc1cc2ncnc(Nc3ccc(F)c(Cl)c3)c2cc1OCCCN1CCOCC1 [Gefitinib, gefitinib] | 28.5 | 8.3 | 4.5 | 0.16 | – | – | anti-microvascular effects score (0+ to 5+ scale) (endothelial cells [6]; pancreatic carcinoid tumor suspension culture, bevacizumab at 2.5 mg/ml, Fast Green/H&E): 0
9 | bevacizumab | 12.9 | 24.7 | 19.7 | – | essentially no direct antitumor effects | – | endothelial cell death (appearance after Fast Green/H&E) (endothelial cells [6]; pancreatic carcinoid tumor, 96 hours in suspension culture, 2.5 mg/ml): resulting in endothelial cell death; anti-microvascular score (endothelial cells [5]; drug alone): +1; 450-570 O.D. (level of VEGF) ([7]; Pt 1 cells (Merkel tumor, 10% DMSO cryopreserved), 1.25 mg/ml, wells #1-#3, listed as Bev): 0.054 and 0.059; 450-570 O.D. (level of VEGF) ([7]; Pt 1 cells (Merkel tumor, 10% DMSO cryopreserved), 2.5 mg/ml, wells #1-#3, listed as Bev): 0.051 and 0.052 and 0.054; 450-570 O.D. (level of VEGF) ([7]; Pt 2 cells (ovarian, 10% DMSO cryopreserved), 1.25 mg/ml, wells #1-#3, listed as Bev): 0.059 and 0.055 and 0.054; 450-570 O.D. (level of VEGF) ([7]; Pt 2 cells (ovarian, 10% DMSO cryopreserved), 2.5 mg/ml, wells #1-#3, listed as Bev): 0.052 and 0.056 and 0.054; 450-570 O.D. (level of VEGF) ([7]; Pt 3 cells (breast, fresh), 2.5 mg/ml, wells #1-#2, listed as Bev): 0.056 and 0.059; 450-570 O.D. (level of VEGF) ([7]; Pt 4 cells (NHL, fresh), 1.25 mg/ml, wells #1-#2, listed as Bev): 0.074 and 0.068; 450-570 O.D. (level of VEGF) ([7]; Pt 4 cells (NHL, fresh), 2.5 mg/ml, wells #1-#2): 0.055; 450-570 O.D. (level of VEGF) ([7]; Pt 5 cells (breast, fresh), 2.5 mg/ml, well #1): 0.053; 450-570 O.D. (level of VEGF) ([7]; Pt 6 cells (breast, fresh), 1.25 mg/ml, well #1): 0.063; 450-570 O.D. (level of VEGF) ([7]; Pt 6 cells (breast, fresh), 2.5 mg/ml, well #1): 0.052; levels of VEGF (in words) ([7]; fresh breast tumor cells, untreated levels off-scale): could be brought to 0; dead endothelial cells (200x view) (endothelial cells [3]; NHL lymph node biopsy cells cultured 4 days): presence of dead endothelial cells is readily apparent; effect on endothelial cells (in words) (endothelial cells [8]): endothelial cells showing up dead; effect on tumor cells (in words) (tumor cells [9]): tumor cells remain unaffected; endothelial cell death (endothelial cells [10]): caused endothelial cell death; visibility of endothelial cells (in words) (endothelial cells [11]): greatly enhanced
10 | COc1cccc2c1C(=O)c1c(O)c3c(c(O)c1C2=O)C[C@@](O)(C(=O)CO)C[C@@H]3O[C@H]1C[C@H](N)[C@H](O)[C@H](C)O1 [doxorubicin] | – | – | – | – | direct antitumor effects | relatively ineffective as anti-microvascular agents | –
